According to patent publication US20130303507A1 (Novartis AG, priority 2011, published 2013):

Molecular target: Cdk9/cyclinT1 (Homo sapiens, UniProt P50750)
Test: Cdk9/cyclinT1 IMAP protocol (fluorescence polarization)
Conditions: IC-50, CDK9; lower limit of assay 0.0005 micromolar

Chain of Cdk9/cyclinT1 (P50750 whole entry): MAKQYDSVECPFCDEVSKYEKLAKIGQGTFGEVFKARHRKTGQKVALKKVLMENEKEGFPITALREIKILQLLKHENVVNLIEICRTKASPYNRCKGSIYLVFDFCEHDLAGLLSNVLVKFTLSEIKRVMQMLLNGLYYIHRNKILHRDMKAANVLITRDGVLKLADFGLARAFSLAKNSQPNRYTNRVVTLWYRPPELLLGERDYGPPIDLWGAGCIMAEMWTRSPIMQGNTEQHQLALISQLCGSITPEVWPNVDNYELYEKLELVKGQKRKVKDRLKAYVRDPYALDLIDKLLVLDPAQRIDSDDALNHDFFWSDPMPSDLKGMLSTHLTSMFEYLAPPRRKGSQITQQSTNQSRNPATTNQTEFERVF
Chain of Cdk9/cyclinT1 (O60563 whole entry partner): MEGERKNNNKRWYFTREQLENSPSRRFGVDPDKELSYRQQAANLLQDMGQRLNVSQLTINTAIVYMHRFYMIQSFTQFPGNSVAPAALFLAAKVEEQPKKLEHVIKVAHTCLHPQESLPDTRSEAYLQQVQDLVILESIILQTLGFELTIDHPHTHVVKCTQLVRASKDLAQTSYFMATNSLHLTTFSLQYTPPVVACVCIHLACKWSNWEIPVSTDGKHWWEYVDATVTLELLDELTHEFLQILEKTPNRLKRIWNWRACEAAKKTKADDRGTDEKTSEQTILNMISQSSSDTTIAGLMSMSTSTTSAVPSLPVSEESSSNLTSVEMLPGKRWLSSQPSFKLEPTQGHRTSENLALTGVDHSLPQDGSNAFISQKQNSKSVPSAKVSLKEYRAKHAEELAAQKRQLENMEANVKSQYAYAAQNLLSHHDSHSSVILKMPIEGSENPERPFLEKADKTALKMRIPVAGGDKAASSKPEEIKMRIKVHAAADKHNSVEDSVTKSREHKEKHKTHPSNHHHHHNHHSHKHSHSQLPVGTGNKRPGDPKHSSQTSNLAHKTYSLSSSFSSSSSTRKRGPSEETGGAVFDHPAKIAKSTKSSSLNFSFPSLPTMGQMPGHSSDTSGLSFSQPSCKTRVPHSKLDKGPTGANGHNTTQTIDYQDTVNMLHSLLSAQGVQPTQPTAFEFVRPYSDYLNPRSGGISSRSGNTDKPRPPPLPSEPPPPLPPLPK

Row | SMILES | IC50 [nM]
1 | CC1(CN[C@H]2CC[C@H](Nc3cc(-c4cccc(NCC5(C#N)CCOCC5)n4)c(Cl)cn3)CC2)COC1 [Compound 430, 4-(((5′-chloro-2′-((trans-4-(((3-methyloxetan-3-yl)methyl)amino)cyclohexyl)amino)-[2,4′-bipyridin]-6-yl)amino)methyl)tetrahydro-2H-pyran-4-carbonitrile] | 1
2 | N#CC1(CNc2cccc(-c3cc(N[C@H]4CC[C@H](NC[C@H]5CCCO5)CC4)ncc3Cl)n2)CCOCC1 [Compound 473, 4-(((5′-chloro-2′-((trans-4-((((R)-tetrahydrofuran-2-yl)methyl)amino)cyclohexyl)amino)-[2,4′-bipyridin]-6-yl)amino)methyl)tetrahydro-2H-pyran-4-carbonitrile] | < 0.5
3 | N#CC1(CNc2cccc(-c3cc(N[C@H]4CC[C@H](N)CC4)ncc3F)n2)CC1 [Compound 486, 1-(((2′-((trans-4-aminocyclohexyl)amino)-5′-fluoro-[2,4′-bipyridin]-6-yl)amino)methyl)cyclopropane-carbonitrile] | < 0.5
4 | COC[C@@H](C)N[C@H]1CC[C@H](Nc2cc(-c3cccc(NCC4(C#N)CC4)n3)c(F)cn2)CC1 [Compound 480, 1-(((5′-fluoro-2′-((trans-4-(((R)-1-methoxypropan-2-yl)amino)cyclohexyl)amino)-[2,4′-bipyridin]-6-yl)amino)methyl)cyclopropane-carbonitrile] | < 0.5
5 | COCCN[C@H]1CC[C@H](Nc2cc(-c3cccc(NCC4(C#N)CC4)n3)c(F)cn2)CC1 [Compound 488, 1-(((5′-fluoro-2′-((trans-4-((2-methoxyethyl)amino)cyclohexyl)amino)-[2,4′-bipyridin]-6-yl)amino)methyl)cyclopropane-carbonitrile] | < 0.5
6 | N#CC1(CNc2cccc(-c3cc(N[C@H]4CC[C@H](NC[C@@H](O)C(F)(F)F)CC4)ncc3Cl)n2)CCOCC1 [Compound 491, 4-(((5′-chloro-2′-((trans-4-(((R)-3,3,3-trifluoro-2-hydroxypropyl)amino)cyclohexyl)amino)-[2,4′-bipyridin]-6-yl)amino)methyl)tetrahydro-2H-pyran-4-carbonitrile] | < 0.5
7 | COC[C@H](C)N[C@H]1CC[C@H](Nc2cc(-c3ccc(F)c(NC[C@@H]4CCOC(C)(C)C4)n3)c(Cl)cn2)CC1 [Compound 462, 5′-chloro-N6-(((R)-2,2-dimethyltetrahydro-2H-pyran-4-yl)methyl)-5-fluoro-N2′-(trans-4-(((S)-1-methoxypropan-2-yl)amino)cyclohexyl)-[2,4′-bipyridine]-2′,6-diamine] | 1.2
8 | CN(C)C(=O)CN(CC(=O)N(C)C)[C@H]1CC[C@H](Nc2cc(-c3cccc(NCC4(C#N)CCOCC4)n3)c(Cl)cn2)CC1 [Compound 421, 2,2′-((trans-4-((5′-chloro-6-(((4-cyanotetrahydro-2H-pyran-4-yl)methyl)amino)-[2,4′-bipyridin]-2′-yl)amino)cyclohexyl)azanediyl) bis(N,N-dimethylacetamide)] | 2.7
9 | NC(=O)C1(CNc2cccc(-c3cc(N[C@H]4CC[C@H](N)CC4)ncc3F)n2)CCOCC1 [Compound 485, 4-(((2′-((trans-4-aminocyclohexyl)amino)-5′-fluoro-[2,4′-bipyridin]-6-yl)amino)methyl)tetrahydro-2H-pyran-4-carboxamide] | 1.8
10 | C[C@@H]1CN([C@H]2CC[C@@H](Nc3cc(-c4cccc(NCC5(C#N)CCOCC5)n4)c(Cl)cn3)CC2)C[C@H](C)O1 [Compound 427, 4-(((5′-chloro-2′-((cis-4-((2S,6R)-2,6-dimethylmorpholino)cyclohexyl)amino)-[2,4′-bipyridin]-6-yl)amino)methyl)tetrahydro-2H-pyran-4-carbonitrile] | 8.2
11 | N#CC1(CNc2cccc(-c3cc(N[C@H]4CC[C@H](N[C@@H]5CCOC5)CC4)ncc3Cl)n2)CCOCC1 [Compound 470, 4-(((5′-chloro-2′-((trans-4-(((R)-tetrahydrofuran-3-yl)amino)cyclohexyl)amino)-[2,4′-bipyridin]-6-yl)amino)methyl)tetrahydro-2H-pyran-4-carbonitrile] | < 0.5
12 | CC(C)N[C@H]1CC[C@H](Nc2cc(-c3cccc(NCC4(C#N)CCOCC4)n3)c(Cl)cn2)CC1 [Compound 412, 4-(((5′-chloro-2′-((trans-4-(isopropylamino)cyclohexyl)amino)-[2,4′-bipyridin]-6-yl)amino)methyl)tetrahydro-2H-pyran-4-carbonitrile] | < 0.5
13 | CO[C@@H]1CC[C@H](Nc2cc(-c3cccc(NCC4(C#N)CCOCC4)n3)c(Cl)cn2)C[C@H]1N [Compound 438, 4-(((2′-(((1S,3R,4R)-3-amino-4-methoxycyclohexyl)amino)-5′-chloro-[2,4′-bipyridin]-6-yl)amino)methyl)tetrahydro-2H-pyran-4-carbonitrile] | 20
14 | COC[C@@H](C)N[C@H]1CC[C@H](Nc2cc(-c3cccc(NCC4(C#N)CC4)n3)c(Cl)cn2)CC1 [Cmpd 400, 1-(((5′-chloro-2′-((trans-4-(((R)-1-methoxypropan-2-yl)amino)cyclohexyl)amino)-[2,4′-bipyridin]-6-yl)amino)methyl)cyclopropane-carbonitrile] | < 0.5
15 | N#CC1(CNc2cccc(-c3cc(N[C@H]4CC[C@H](CN)CC4)ncc3Cl)n2)CCOCC1 [Compound 493, 4-(((2′-((trans-4-(aminomethyl)cyclohexyl)amino)-5′-chloro-[2,4′-bipyridin]-6-yl)amino)methyl)tetrahydro-2H-pyran-4-carbonitrile] | < 0.5
16 | CNC(=O)CN[C@H]1CC[C@H](Nc2cc(-c3cccc(NCC4(C#N)CCOCC4)n3)c(Cl)cn2)CC1 [Compound 420, 2-((trans-4-((5′-chloro-6-(((4-cyanotetrahydro-2H-pyran-4-yl)methyl)amino)-[2,4′-bipyridin]-2′-yl)amino)cyclohexyl)amino)-N-methylacetamide] | < 0.5
17 | N#CC1(CNc2cccc(-c3cc(N[C@@H]4CCCc5ccccc54)ncc3Cl)n2)CCOCC1 [Compound 500, (R)-4-(((5′-chloro-2′-((1,2,3,4-tetrahydronaphthalen-1-yl)amino)-[2,4′-bipyridin]-6-yl)amino)methyl)tetrahydro-2H-pyran-4-carbonitrile] | 20
18 | CC1(C)CN([C@H]2CC[C@H](Nc3cc(-c4cccc(NCC5(C#N)CCOCC5)n4)c(Cl)cn3)CC2)CCO1 [Compound 416, 4-(((5′-chloro-2′-((trans-4-(2,2-dimethylmorpholino)cyclohexyl)amino)-[2,4′-bipyridin]-6-yl)amino)methyl)tetrahydro-2H-pyran-4-carbonitrile] | 21
19 | COC[C@@H](C)N[C@H]1CC[C@H](Nc2cc(-c3cccc(NCC4(C#N)CCOCC4)n3)c(F)cn2)CC1 [Compound 471, 4-(((5′-fluoro-2′-((trans-4-(((R)-1-methoxypropan-2-yl)amino)cyclohexyl)amino)-[2,4′-bipyridin]-6-yl)amino)methyl)tetrahydro-2H-pyran-4-carbonitrile] | < 0.5
20 | N#CCCN[C@H]1CC[C@H](Nc2cc(-c3cccc(NCC4CCOCC4)n3)c(Cl)cn2)CC1 [Compound 444, 3-((trans-4-((5′-chloro-6-(((tetrahydro-2H-pyran-4-yl)methyl)amino)-[2,4′-bipyridin]-2′-yl)amino)cyclohexyl)amino) propanenitrile] | 2.4
